Reference: patent publication US10359430B2, “Selective near-infrared optical imaging of necrotic cells and simultaneous cell fixing and counter staining with metallacrown complexes” (THE REGENTS OF THE UNIVERSITY OF MICHIGAN, priority 2015, dated 2019)
“Also recorded” adds a separate entry of the source.

Key:
HeLa cells [1] = experiment: Confocal microscopy of HeLa cells; format: cell-based, Human; conditions: 150 μM, 15 minutes, UV light (377 nm) 8 minutes, further 1 hour; λex 458 nm, λem 499-799 nm
[2] = Photophysical properties of the metallacrowns in solid state and in aqueous solutions; format: physicochemical
HeLa cells [3] = experiment: Cytotoxicity test with Alamar blue; format: cell-based, Human; conditions: FIG. 6, text says 5 hours, figure legend 24 and 48 hours
Experimental: In order to determine if the LnZn16(pyz)16MC complexes (Ln^3+Zn(II)MCHAD are toxic for live cells, cytotoxicity tests with Alamar blue were performed.
Alamar blue is viability reagent which functions as a cell health indicator by using the reducing power of living cells to quantitatively measure the proliferation of different human and animal cell lines. This enables the cytotoxicity of different chemical complexes to be determined. The active ingredient of Alamar Blue is resazurin, which is non-toxic and cell permeable compound, and upon entering in the cells, it is reduced to highly fluorescent resorufin.
The cytotoxicity tests were performed with Alamar blue assay (Invitrogen, France). HeLa cells were seeded in 96-well plate at the density of 1*10^4 cells per well and cultured at 37° C. in 5% humidified CO2 atmosphere. After 24 hours of attachment, the cells were incubated with different concentrations of Yb^3+[Zn(II)MCpyzHA] in cell culture medium for 24 and 48 hours followed by incubation with Alamar blue (10% v/v) for 3 to 4 hours at 37° C. in 5% humidified CO2 atmosphere.
Fluorescence of Alamar blue was measured with plate reader (Victor 3V, Perkin Elmer, France), with excitation at 530 nm and emission at 590 nm, for cells incubated with Yb^3+[Zn(II)MCpyzHA] and for untreated cells (control).

MSC stem cells = conditions: 150 μM, 15 minutes, UV light (377 nm) 8 minutes, further 1 hour; λex 458 nm, λem 499-799 nm
Experimental: For these confocal microscopy experiments, the HeLa or MSC cells were prepared in the same way as for the epifluorescence microscopy experiments (see Example 1, Short incubation, UV light exposure #1 and #3). […] Complexes were excited with Argon laser at 458 nm and emission signal was collected from 499 nm to 799 nm. During this experiment, a 63× Plan-Apochromat objective was used (2× zoom).

[4] = Photophysical parameters in OPTI-MEM media, cell supernatant and HeLa cells; format: physicochemical
Experimental: The Yb^3+[Zn(II)MCpyzHA] complexes were dissolved in OPTI-MEM® medium with 2% SVF (without cells) and were incorporated in HeLa cells, both with and without exposure to UV light. The results in are shown in FIG. 20, (A) (corrected and normalized excitation) and FIG. 20, (B) (corrected and normalized emission). […] The present inventors developed instrumentation in order to collect photophysical properties of MCs inside of cancer cells. They measured quantitative photophysical parameters (quantum yields and life times) inside of the cells with equipment which is usually adapted for measuring of (quantum yields and life times) in solids or in concentrated solutions.
The Yb^3+[Zn(II)MCpyzHA] complexes were collected together with cell supernatant (SN) and with HeLa cells treated with N-acetyl cysteine, both with and without exposure to UV light. For SN1 and cells1, incubation with NAC took place for 30 minutes, then the cells were washed, and incubation with Yb^3+[Zn(II)MCpyzHA] took place for 15 minutes. For SN2 and cells2, incubation with Yb^3+[Zn(II)MCpyzHA] took place for 15 minutes, and then NAC was added and incubation with NAC took place for 30 minutes. The results in are shown in FIGS. 20C (corrected and normalized excitation) and 20D (corrected and normalized emission). […]

[5] = No UV NAC (SN1*): cell supernatant, NAC 30 minutes, washed, then complex 15 minutes
[6] = No UV NAC (SN2*): cell supernatant, complex 15 minutes, then NAC 30 minutes
[7] = No UV NAC (in cells1*): NAC 30 minutes, washed, then complex 15 minutes
[8] = No UV NAC (in cells2*): complex 15 minutes, then NAC 30 minutes
[9] = No UV: After 5 h of incubation with HeLa cells without illumination
[10] = UV NAC (SN2*): cell supernatant, complex 15 minutes, then NAC 30 minutes
[11] = UV NAC (in cells2*): complex 15 minutes, then NAC 30 minutes
[12] = UV: After 5 h of incubation with HeLa cells with UV illumination (during 8 min)

Compound: O=C([N-][O-])c1cnccn1.O=C([N-][O-])c1cnccn1.O=C([N-][O-])c1cnccn1.O=C([N-][O-])c1cnccn1.O=C([N-][O-])c1cnccn1.O=C([N-][O-])c1cnccn1.O=C([N-][O-])c1cnccn1.O=C([N-][O-])c1cnccn1.O=C([N-][O-])c1cnccn1.O=C([N-][O-])c1cnccn1.O=C([N-][O-])c1cnccn1.O=C([N-][O-])c1cnccn1.O=C([N-][O-])c1cnccn1.O=C([N-][O-])c1cnccn1.O=C([N-][O-])c1cnccn1.O=C([N-][O-])c1cnccn1.O=S(=O)([O-])C(F)(F)F.O=S(=O)([O-])C(F)(F)F.O=S(=O)([O-])C(F)(F)F.[Yb+3].[Zn+2].[Zn+2].[Zn+2].[Zn+2].[Zn+2].[Zn+2].[Zn+2].[Zn+2].[Zn+2].[Zn+2].[Zn+2].[Zn+2].[Zn+2].[Zn+2].[Zn+2].[Zn+2].c1ccncc1.c1ccncc1.c1ccncc1.c1ccncc1.c1ccncc1.c1ccncc1.c1ccncc1.c1ccncc1 [Yb^3+[Zn(II)MCpyzHA]]
- Intracellular location (confocal, visible ligand emission) (HeLa cells [1]): specifically located in nucleus as well as in cytoplasm
- τ (luminescence lifetime), D2O ([2]; 200 μM in D2O, room temperature, excitation at 355 nm): 81.3(1) μs
- τ (luminescence lifetime), H2O ([2]; 200 μM in H2O, room temperature, excitation at 355 nm): 5.57(1) μs
- q (number of coordinated water molecules) ([2]; calculated from lifetimes, estimated error ±0.2): 0
- τ (luminescence lifetime), Solid ([2]; solid state, room temperature, excitation at 355 nm): 45.6(3) μs
- Cells remained alive (HeLa cells [3]; 45 μM): approximately 70%
- Concentration from which the complex started to be significantly toxic (HeLa cells [3]): ≥ 45 µM
- Intracellular location (confocal, visible ligand emission) (MSC stem cells): specifically located in nucleus as well as in cytoplasm
- Quantum yield ([4]; In HeLa cells): 2.14(6) · 10^−2%
- τ2 ([4]; In HeLa cells): 23.6(7) μs
- τ2 contribution ([4]; In HeLa cells): 100%
- Quantum yield [4, 5]: 1.08(1) · 10^−2%
- τ1 [4, 5]: 7.27(2) μs
- τ1 contribution [4, 5]: 91%
- τ2 [4, 5]: 50(2) μs
- τ2 contribution [4, 5]: 9%
- Quantum yield [4, 6]: 1.00(4) · 10^−2%
- τ1 [4, 6]: 6.72(3) μs
- τ1 contribution [4, 6]: 88%
- τ2 [4, 6]: 28.4(1) μs
- τ2 contribution [4, 6]: 12%
- τ1 [4, 7]: 7.5(4) μs
- τ1 contribution [4, 7]: 6%
- τ2 [4, 7]: 22.9(1) μs
- τ2 contribution [4, 7]: 94%
- τ1 [4, 8]: 7.3(1) μs
- τ1 contribution [4, 8]: 7%
- τ2 [4, 8]: 23.6(2) μs
- τ2 contribution [4, 8]: 93%
- Quantum yield [4, 9]: 1.52(3) · 10^−2%
- τ1 [4, 9]: 6.47(4) μs
- τ1 contribution [4, 9]: 75%
- τ2 [4, 9]: 21.6(8) μs
- τ2 contribution [4, 9]: 25%
- Quantum yield ([4]; OptiMEM): 1.25(1) · 10^−2%
- τ1 ([4]; OptiMEM): 6.45(5) μs
- τ1 contribution ([4]; OptiMEM): 89%
- τ2 ([4]; OptiMEM): 24(1) μs
- τ2 contribution ([4]; OptiMEM): 11%
- Quantum yield ([4]; OptiMEM-UV 1 h 30 min): 2.05(5) · 10^−2%
- τ1 ([4]; OptiMEM-UV 1 h 30 min): 7.03(3) μs
- τ1 contribution ([4]; OptiMEM-UV 1 h 30 min): 61%
- τ2 ([4]; OptiMEM-UV 1 h 30 min): 21.5(1) μs
- τ2 contribution ([4]; OptiMEM-UV 1 h 30 min): 39%
- Quantum yield [4, 10]: 1.06(5) · 10^−2%
- τ1 [4, 10]: 6.80(9) μs
- τ1 contribution [4, 10]: 75%
- τ2 [4, 10]: 23(1) μs
- τ2 contribution [4, 10]: 25%
- τ1 [4, 11]: 8.7(5) μs
- τ1 contribution [4, 11]: 9%
- τ2 [4, 11]: 23.2(1) μs
- τ2 contribution [4, 11]: 91%
- Quantum yield [4, 12]: 1.64(5) · 10^−2%
- τ1 [4, 12]: 6.51(8) μs
- τ1 contribution [4, 12]: 65%
- τ2 [4, 12]: 21(1) μs
- τ2 contribution [4, 12]: 35%
- Contribution of the long lifetime inside of HeLa cells ([4]; all experimental conditions): more than 90%
- Integrity of the MC ([4]; cell culture media and cells, different experimental conditions): stays intact in cell culture media and in the cells
- Change of luminescent properties in media, cell supernatant or HeLa cells ([4]; with/without exposure to UV light): did not change in the cells; also recorded: did not change in cell supernatant or inside of the HeLa cells
